Patent US10039825B2, “Combination therapy with CD4 lymphocyte depletion and MTOR inhibitors” (Cedars-Sinai Medical Center, priority 2010, dated 2018)

Experiments:
CD4+FoxP3+ lymphocytes = assay: in vivo effect on CD4+FoxP3+ lymphocytes (flow cytometry); design: species or system B6 mice; conditions: treated daily for 24 days; FoxP3 staining gated on CD4; FIG. 1B
Method: Further, in vivo effect of temsirolimus on CD4+FoxP3+ lymphocytes was assessed. B6 mice (5 mice per group) were treated daily with temsirolimus for 24 days, 2 doses of vaccine (complex of hsp110 and gp100), or both. FoxP3 staining was quantified with flow cytometry while gating on CD4. […] Representative results are shown from at least 2 independent experiments.

RENCA tumor cells = assay: RENCA tumor re-challenge after treatment (antitumor immune memory); assay type: in vivo, Balb/c mice; conditions: re-challenged with 2×10^5 RENCA cells on day 47; tumor size 11 and 18 days after; FIG. 4
Method: Ten days after subcutaneous implantation of 2×10^5 tumor cells, Balb/c mice were treated with temsirolimus (30 ug/mouse daily on days 14 to 34, intraperitoneally) or temsirolimus plus CD4 depleting antibody (intraperitoneal injection of 200 μg of GK1.5 mAb, administered at day 6 and 10). Mice were re-challenged with 2×10^5 RENCA tumor cells on day 47. Naïve mouse group was also challenged with RENCA and served as a control. Tumor size was measured 11 and 18 days after the re-challenge. […] Since the mice were not being actively treated at the time of tumor re-challenge, direct antitumor effects of the therapy cannot account for the effects on tumor growth.

[1] = system: C57 BL/6 or Pmel-1 mouse lymph node lymphocytes; assay: [3H] thymidine incorporation assay of stimulated lymph node lymphocytes; assay type: cell-based; conditions: lymphocytes stimulated with anti-CD3 and anti-CD28 mAb or gp100 peptide, 72 hours; FIG. 1A
Method: As has been well established, mTOR inhibitors have immune suppressing activity. For the [3H] thymidine incorporation assay, lymph nodes were harvested from naïve C57 BL/6 or Pmel-1 mouse, 3×10^5 cells/well were cultured in 96-well plates and stimulated, with or without mTOR inhibitors, for 72 hours. C57 BL/6 lymphocytes were stimulated with anti-CD3 and anti-CD28 mAb, and Pmel-1 lymphocytes were stimulated with […]. DNA synthesis was determined by incubation for 16 h with 1 μCi [3H]thymidine (Amersham Biosciences, Piscataway, N.J., USA).

Compound: CO[C@H]1C[C@@H]2CC[C@@H](C)[C@@](O)(O2)C(=O)C(=O)N2CCCC[C@H]2C(=O)O[C@H]([C@H](C)C[C@@H]2CC[C@@H](OC(=O)C(C)(CO)CO)[C@H](OC)C2)CC(=O)[C@H](C)/C=C(\C)[C@@H](O)[C@@H](OC)C(=O)[C@H](C)C[C@H](C)/C=C/C=C/C=C/1C [temsirolimus, Temsirolimus]
- Foxp3 positive lymphocytes (regulatory T cells) (CD4+FoxP3+ lymphocytes): increased
- tumor growth after re-challenge (RENCA tumor cells): grew at the same rate
- immune suppressing activity, DNA synthesis by [3H]thymidine incorporation [1]: nearly identical activities
